Experimental data reported in the kinase profiling compilation of Christmann-Franck et al. (2016).

Key:
Experiment in all cases: KINOMEscan competition binding
Settings in all cases: compound 10.0 µM
CDK3 (human) = CDK3 (human) (UniProt Q00526)
CDK19 (human) = CDK19 (human) (UniProt Q9BWU1)
[1] = molecular target: TYK2 JH2 pseudokinase (human) (UniProt P29597)
MTOR (human) = MTOR (human) (UniProt P42345)
MAPK4 (human) = MAPK4 (human) (UniProt P31152)
IGF1R (human) = IGF1R (human) (UniProt P08069)
PI4KB (human) = PI4KB (human) (UniProt Q9UBF8)
PI4KB (human), sequence (Q9UBF8 whole entry, looked up): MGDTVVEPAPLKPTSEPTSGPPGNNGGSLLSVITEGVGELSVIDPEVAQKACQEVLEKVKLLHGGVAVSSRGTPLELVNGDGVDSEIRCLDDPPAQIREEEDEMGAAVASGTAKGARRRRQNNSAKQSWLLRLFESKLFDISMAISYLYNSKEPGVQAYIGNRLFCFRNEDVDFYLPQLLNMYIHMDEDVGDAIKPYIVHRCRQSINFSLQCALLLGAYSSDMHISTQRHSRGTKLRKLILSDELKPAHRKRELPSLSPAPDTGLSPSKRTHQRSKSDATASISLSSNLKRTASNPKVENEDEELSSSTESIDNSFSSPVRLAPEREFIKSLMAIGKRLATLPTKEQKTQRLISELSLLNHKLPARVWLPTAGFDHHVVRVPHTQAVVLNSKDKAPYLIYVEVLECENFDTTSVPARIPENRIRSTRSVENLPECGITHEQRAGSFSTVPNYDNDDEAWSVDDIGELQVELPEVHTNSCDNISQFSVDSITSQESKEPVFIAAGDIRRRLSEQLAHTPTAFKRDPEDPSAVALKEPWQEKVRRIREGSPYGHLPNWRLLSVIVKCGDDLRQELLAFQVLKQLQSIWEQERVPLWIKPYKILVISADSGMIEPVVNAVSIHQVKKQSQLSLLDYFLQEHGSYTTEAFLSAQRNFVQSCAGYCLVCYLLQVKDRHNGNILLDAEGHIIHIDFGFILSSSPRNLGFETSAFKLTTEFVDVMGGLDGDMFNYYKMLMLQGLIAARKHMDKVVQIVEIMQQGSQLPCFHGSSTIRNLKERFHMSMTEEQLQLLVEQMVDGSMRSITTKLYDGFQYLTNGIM

PLK2 (human) = PLK2 (human) (UniProt Q9NYY3)
PLK2 (human), sequence (Q9NYY3 whole entry, looked up): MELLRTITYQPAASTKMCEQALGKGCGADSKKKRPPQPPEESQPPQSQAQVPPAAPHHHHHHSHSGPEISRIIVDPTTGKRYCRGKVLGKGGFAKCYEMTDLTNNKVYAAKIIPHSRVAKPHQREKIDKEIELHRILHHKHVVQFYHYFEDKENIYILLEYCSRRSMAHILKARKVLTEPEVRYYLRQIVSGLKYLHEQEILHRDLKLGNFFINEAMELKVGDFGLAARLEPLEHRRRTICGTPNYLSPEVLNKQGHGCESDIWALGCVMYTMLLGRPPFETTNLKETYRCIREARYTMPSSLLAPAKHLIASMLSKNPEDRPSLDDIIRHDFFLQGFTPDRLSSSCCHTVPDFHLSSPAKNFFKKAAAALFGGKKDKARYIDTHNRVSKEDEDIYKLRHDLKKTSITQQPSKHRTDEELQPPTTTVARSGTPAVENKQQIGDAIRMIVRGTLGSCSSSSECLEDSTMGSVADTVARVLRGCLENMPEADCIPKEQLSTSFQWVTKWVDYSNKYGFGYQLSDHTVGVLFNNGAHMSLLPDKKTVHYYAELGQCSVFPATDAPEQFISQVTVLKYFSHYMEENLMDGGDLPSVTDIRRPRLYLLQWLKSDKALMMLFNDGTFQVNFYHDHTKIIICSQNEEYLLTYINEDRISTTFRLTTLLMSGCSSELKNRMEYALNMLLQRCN

AKT3 (human) = AKT3 (human) (UniProt Q9Y243)
RPS6KA1 KD1 (human) = RPS6KA1 KD1 (human) (UniProt Q15418)
IRAK3 (human) = IRAK3 (human) (UniProt Q9Y616)
AURKB (human) = AURKB (human) (UniProt Q96GD4)
RPS6KA6 KD2 (human) = RPS6KA6 KD2 (human) (UniProt Q9UK32)
CSNK2A2 (human) = CSNK2A2 (human) (UniProt P19784)
CSNK2A2 (human), sequence (P19784 whole entry, looked up): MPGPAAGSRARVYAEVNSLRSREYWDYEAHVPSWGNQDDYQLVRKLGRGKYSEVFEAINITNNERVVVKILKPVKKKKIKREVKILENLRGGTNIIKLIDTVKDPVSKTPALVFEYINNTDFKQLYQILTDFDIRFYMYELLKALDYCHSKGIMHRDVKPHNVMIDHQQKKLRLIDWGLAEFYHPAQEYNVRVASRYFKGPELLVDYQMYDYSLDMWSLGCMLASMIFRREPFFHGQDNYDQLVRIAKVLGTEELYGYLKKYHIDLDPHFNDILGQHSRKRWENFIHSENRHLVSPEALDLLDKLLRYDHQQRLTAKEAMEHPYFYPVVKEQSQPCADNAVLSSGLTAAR

BRSK1 (human) = BRSK1 (human) (UniProt Q8TDC3)
BRSK1 (human), sequence (Q8TDC3 whole entry, looked up): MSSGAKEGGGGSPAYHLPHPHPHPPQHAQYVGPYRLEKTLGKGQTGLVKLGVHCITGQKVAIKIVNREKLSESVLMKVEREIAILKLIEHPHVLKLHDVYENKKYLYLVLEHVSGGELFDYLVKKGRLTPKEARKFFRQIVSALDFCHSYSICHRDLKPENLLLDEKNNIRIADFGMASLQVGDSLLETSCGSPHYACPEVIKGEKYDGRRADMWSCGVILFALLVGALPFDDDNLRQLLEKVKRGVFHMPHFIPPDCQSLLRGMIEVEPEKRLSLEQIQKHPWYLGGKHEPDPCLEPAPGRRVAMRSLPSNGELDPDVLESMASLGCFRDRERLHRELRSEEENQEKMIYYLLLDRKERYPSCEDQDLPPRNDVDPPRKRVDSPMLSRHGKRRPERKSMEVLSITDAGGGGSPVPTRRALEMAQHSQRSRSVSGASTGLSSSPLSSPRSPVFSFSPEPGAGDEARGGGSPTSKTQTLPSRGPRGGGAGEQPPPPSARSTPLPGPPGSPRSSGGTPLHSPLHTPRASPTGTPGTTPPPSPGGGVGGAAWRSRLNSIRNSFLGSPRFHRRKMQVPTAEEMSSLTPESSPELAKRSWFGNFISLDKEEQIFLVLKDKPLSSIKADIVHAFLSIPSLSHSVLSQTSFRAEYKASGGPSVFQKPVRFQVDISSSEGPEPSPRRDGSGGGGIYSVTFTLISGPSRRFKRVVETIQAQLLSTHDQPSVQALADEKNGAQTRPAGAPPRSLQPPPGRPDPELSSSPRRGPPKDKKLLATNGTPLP

KDR (human) = KDR (human) (UniProt P35968)
WEE2 (human) = WEE2 (human) (UniProt P0C1S8)
BMPR1B (human) = BMPR1B (human) (UniProt O00238)
MET (human) = MET (human) (UniProt P08581)
CSNK1D (human) = CSNK1D (human) (UniProt P48730)
PIK3CA (human) = PIK3CA (human) (UniProt P42336)
TNNI3K (human) = TNNI3K (human) (UniProt Q59H18)
MUSK (human) = MUSK (human) (UniProt O15146)
MUSK (human), sequence (O15146 whole entry, looked up): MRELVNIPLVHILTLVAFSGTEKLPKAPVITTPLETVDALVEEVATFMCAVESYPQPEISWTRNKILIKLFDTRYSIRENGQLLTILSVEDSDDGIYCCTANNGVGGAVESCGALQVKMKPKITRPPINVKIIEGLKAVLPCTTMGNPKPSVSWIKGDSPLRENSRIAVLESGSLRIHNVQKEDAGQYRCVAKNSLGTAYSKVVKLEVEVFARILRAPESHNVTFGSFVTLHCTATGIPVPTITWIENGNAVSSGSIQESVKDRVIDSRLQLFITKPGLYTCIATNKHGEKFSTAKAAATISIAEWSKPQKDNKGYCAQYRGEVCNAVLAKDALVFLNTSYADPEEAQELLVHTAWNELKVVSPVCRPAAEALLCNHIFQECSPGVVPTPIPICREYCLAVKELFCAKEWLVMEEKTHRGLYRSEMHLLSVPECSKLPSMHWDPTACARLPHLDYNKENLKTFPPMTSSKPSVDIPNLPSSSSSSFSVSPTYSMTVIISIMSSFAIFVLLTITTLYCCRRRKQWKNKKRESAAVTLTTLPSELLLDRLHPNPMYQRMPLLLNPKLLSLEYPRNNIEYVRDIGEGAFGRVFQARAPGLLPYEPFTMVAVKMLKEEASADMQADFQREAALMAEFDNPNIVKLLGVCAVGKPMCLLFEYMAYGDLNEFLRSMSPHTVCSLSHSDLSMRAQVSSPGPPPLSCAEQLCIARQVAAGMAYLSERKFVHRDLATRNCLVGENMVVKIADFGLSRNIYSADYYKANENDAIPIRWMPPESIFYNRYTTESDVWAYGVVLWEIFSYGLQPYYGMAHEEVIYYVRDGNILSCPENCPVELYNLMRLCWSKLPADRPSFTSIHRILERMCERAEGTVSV

LATS1 (human) = LATS1 (human) (UniProt O95835)
TYRO3 (human) = TYRO3 (human) (UniProt Q06418)
NTRK2 (human) = NTRK2 (human) (UniProt Q16620)
CDK13 (human) = CDK13 (human) (UniProt Q14004)
MAPK1 (human) = MAPK1 (human) (UniProt P28482)
MYLK4 (human) = MYLK4 (human) (UniProt Q86YV6)
YES1 (human) = YES1 (human) (UniProt P07947)
ACVR1 (human) = ACVR1 (human) (UniProt Q04771)
CSNK1A1 (human) = CSNK1A1 (human) (UniProt P48729)
ACVR1B (human) = ACVR1B (human) (UniProt P36896)
ACVR1B (human), sequence (P36896 whole entry, looked up): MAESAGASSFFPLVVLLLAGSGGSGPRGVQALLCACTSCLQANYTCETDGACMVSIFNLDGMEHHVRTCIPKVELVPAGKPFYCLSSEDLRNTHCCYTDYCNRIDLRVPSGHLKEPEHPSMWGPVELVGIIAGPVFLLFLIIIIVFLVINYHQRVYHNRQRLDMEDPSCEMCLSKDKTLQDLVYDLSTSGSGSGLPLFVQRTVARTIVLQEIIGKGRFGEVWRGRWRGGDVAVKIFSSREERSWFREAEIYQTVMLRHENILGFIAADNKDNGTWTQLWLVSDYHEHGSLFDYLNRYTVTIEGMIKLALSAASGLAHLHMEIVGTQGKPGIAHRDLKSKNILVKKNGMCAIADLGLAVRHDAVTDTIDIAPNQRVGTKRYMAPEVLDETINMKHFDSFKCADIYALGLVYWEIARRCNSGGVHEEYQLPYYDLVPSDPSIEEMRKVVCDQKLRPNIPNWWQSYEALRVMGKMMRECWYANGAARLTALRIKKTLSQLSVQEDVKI

CDKL1 (human) = CDKL1 (human) (UniProt Q00532)
PDPK1 (human) = PDPK1 (human) (UniProt O15530)
MAPK7 (human) = MAPK7 (human) (UniProt Q13164)
MAPK7 (human), sequence (Q13164 whole entry, looked up): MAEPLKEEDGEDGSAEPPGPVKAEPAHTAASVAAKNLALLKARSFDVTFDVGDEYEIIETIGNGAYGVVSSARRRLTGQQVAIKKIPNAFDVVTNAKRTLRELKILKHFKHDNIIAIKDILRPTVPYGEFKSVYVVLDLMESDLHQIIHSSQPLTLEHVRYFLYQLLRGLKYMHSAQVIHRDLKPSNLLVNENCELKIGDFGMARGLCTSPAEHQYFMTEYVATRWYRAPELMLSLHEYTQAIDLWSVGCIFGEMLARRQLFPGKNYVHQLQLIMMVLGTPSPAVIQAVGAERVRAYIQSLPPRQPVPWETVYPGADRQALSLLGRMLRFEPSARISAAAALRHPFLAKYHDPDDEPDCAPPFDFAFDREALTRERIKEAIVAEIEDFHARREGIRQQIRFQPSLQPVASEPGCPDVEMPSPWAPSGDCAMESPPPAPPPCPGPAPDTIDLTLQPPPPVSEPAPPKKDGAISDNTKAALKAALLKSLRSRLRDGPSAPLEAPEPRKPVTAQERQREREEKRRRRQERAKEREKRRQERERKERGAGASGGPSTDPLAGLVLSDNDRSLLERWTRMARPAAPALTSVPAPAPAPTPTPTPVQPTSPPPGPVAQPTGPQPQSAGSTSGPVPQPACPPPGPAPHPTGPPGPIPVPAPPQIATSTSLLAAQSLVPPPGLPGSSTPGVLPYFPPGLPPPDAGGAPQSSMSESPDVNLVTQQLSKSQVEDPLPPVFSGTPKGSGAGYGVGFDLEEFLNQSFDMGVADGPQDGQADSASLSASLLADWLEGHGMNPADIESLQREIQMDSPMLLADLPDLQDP

MLTK (human) = MLTK (human) (UniProt Q9NYL2)
HUNK (human) = HUNK (human) (UniProt P57058)
HCK (human) = HCK (human) (UniProt P08631)

With `COc1cc2ncnc(-n3nc(-c4ccccn4)nc3N)c2cc1OC` the kinase still bound, per cent of control (CDK3 (human)) was 82%, the kinase still bound, per cent of control (CDK19 (human)) was 100% and the kinase still bound, per cent of control [1] was 0%. The kinase still bound, per cent of control (MTOR (human)) was 5%, the kinase still bound, per cent of control (MAPK4 (human)) was 85% and the kinase still bound, per cent of control (IGF1R (human)) was 100%. The kinase still bound, per cent of control (PI4KB (human)) was 9.8%, the kinase still bound, per cent of control (PLK2 (human)) was 13% and the kinase still bound, per cent of control (AKT3 (human)) was 100%. It also gave a kinase still bound, per cent of control (RPS6KA1 KD1 (human)) of 33%, a kinase still bound, per cent of control (IRAK3 (human)) of 12% and a kinase still bound, per cent of control (AURKB (human)) of 0.4%. For the same compound, the kinase still bound, per cent of control (RPS6KA6 KD2 (human)) was 6.2%, the kinase still bound, per cent of control (CSNK2A2 (human)) was 5.2% and the kinase still bound, per cent of control (BRSK1 (human)) was 18%. The kinase still bound, per cent of control (KDR (human)) was 52%, the kinase still bound, per cent of control (WEE2 (human)) was 100% and the kinase still bound, per cent of control (BMPR1B (human)) was 14%. The kinase still bound, per cent of control (MET (human)) was 55%, the kinase still bound, per cent of control (CSNK1D (human)) was 2.8% and the kinase still bound, per cent of control (PIK3CA (human)) was 38%. The kinase still bound, per cent of control (TNNI3K (human)) was 80%, the kinase still bound, per cent of control (MUSK (human)) was 71% and the kinase still bound, per cent of control (LATS1 (human)) was 100%. It also gave a kinase still bound, per cent of control (TYRO3 (human)) of 63%, a kinase still bound, per cent of control (NTRK2 (human)) of 47% and a kinase still bound, per cent of control (CDK13 (human)) of 17%. For the same compound, the kinase still bound, per cent of control (MAPK1 (human)) was 56%, the kinase still bound, per cent of control (MYLK4 (human)) was 25% and the kinase still bound, per cent of control (YES1 (human)) was 77%. For the same compound, the kinase still bound, per cent of control (ACVR1 (human)) was 0.2%, the kinase still bound, per cent of control (CSNK1A1 (human)) was 1.4% and the kinase still bound, per cent of control (ACVR1B (human)) was 14%. It also gave a kinase still bound, per cent of control (CDKL1 (human)) of 21%, a kinase still bound, per cent of control (PDPK1 (human)) of 90% and a kinase still bound, per cent of control (MAPK7 (human)) of 83%. It also gave a kinase still bound, per cent of control (MLTK (human)) of 4.5%, a kinase still bound, per cent of control (HUNK (human)) of 41% and a kinase still bound, per cent of control (HCK (human)) of 12%.

`CN(C)C/C=C/C(=O)Nc1ccc(C(=O)Nc2cccc(Nc3nccc(-c4cccnc4)n3)c2)cc1` showed a kinase still bound, per cent of control (CDK3 (human)) of 96%, a kinase still bound, per cent of control (CDK19 (human)) of 100% and a kinase still bound, per cent of control [1] of 0.2%. It also gave a kinase still bound, per cent of control (MTOR (human)) of 80%, a kinase still bound, per cent of control (MAPK4 (human)) of 19% and a kinase still bound, per cent of control (IGF1R (human)) of 100%. For the same compound, the kinase still bound, per cent of control (PI4KB (human)) was 51%, the kinase still bound, per cent of control (PLK2 (human)) was 81% and the kinase still bound, per cent of control (AKT3 (human)) was 100%. For the same compound, the kinase still bound, per cent of control (RPS6KA1 KD1 (human)) was 91%, the kinase still bound, per cent of control (IRAK3 (human)) was 6.8% and the kinase still bound, per cent of control (AURKB (human)) was 22%. It also gave a kinase still bound, per cent of control (RPS6KA6 KD2 (human)) of 97%, a kinase still bound, per cent of control (CSNK2A2 (human)) of 5.2% and a kinase still bound, per cent of control (BRSK1 (human)) of 100%. For the same compound, the kinase still bound, per cent of control (KDR (human)) was 36%, the kinase still bound, per cent of control (WEE2 (human)) was 100% and the kinase still bound, per cent of control (BMPR1B (human)) was 28%. For the same compound, the kinase still bound, per cent of control (MET (human)) was 100%, the kinase still bound, per cent of control (CSNK1D (human)) was 20% and the kinase still bound, per cent of control (PIK3CA (human)) was 100%. For the same compound, the kinase still bound, per cent of control (TNNI3K (human)) was 100%, the kinase still bound, per cent of control (MUSK (human)) was 61% and the kinase still bound, per cent of control (LATS1 (human)) was 100%. It also gave a kinase still bound, per cent of control (TYRO3 (human)) of 100%, a kinase still bound, per cent of control (NTRK2 (human)) of 69% and a kinase still bound, per cent of control (CDK13 (human)) of 86%. It also gave a kinase still bound, per cent of control (MAPK1 (human)) of 77%, a kinase still bound, per cent of control (MYLK4 (human)) of 36% and a kinase still bound, per cent of control (YES1 (human)) of 100%. The kinase still bound, per cent of control (ACVR1 (human)) was 53%, the kinase still bound, per cent of control (CSNK1A1 (human)) was 27% and the kinase still bound, per cent of control (ACVR1B (human)) was 86%. It also gave a kinase still bound, per cent of control (CDKL1 (human)) of 41%, a kinase still bound, per cent of control (PDPK1 (human)) of 100% and a kinase still bound, per cent of control (MAPK7 (human)) of 100%. It also gave a kinase still bound, per cent of control (MLTK (human)) of 62%, a kinase still bound, per cent of control (HUNK (human)) of 69% and a kinase still bound, per cent of control (HCK (human)) of 100%.

`C=CC(=O)Nc1cc(-n2c(=O)ccc3cnc4ccc(-c5cn[nH]c5)cc4c32)ccc1C` was tested, and the kinase still bound, per cent of control (CDK3 (human)) was 100%, the kinase still bound, per cent of control (CDK19 (human)) was 100% and the kinase still bound, per cent of control [1] was 36%. For the same compound, the kinase still bound, per cent of control (MTOR (human)) was 0%, the kinase still bound, per cent of control (MAPK4 (human)) was 100% and the kinase still bound, per cent of control (IGF1R (human)) was 100%. It also gave a kinase still bound, per cent of control (PI4KB (human)) of 2.3%, a kinase still bound, per cent of control (PLK2 (human)) of 89% and a kinase still bound, per cent of control (AKT3 (human)) of 100%. It also gave a kinase still bound, per cent of control (RPS6KA1 KD1 (human)) of 87%, a kinase still bound, per cent of control (IRAK3 (human)) of 0.7% and a kinase still bound, per cent of control (AURKB (human)) of 97%. It also gave a kinase still bound, per cent of control (RPS6KA6 KD2 (human)) of 67%, a kinase still bound, per cent of control (CSNK2A2 (human)) of 1.2% and a kinase still bound, per cent of control (BRSK1 (human)) of 82%. It also gave a kinase still bound, per cent of control (KDR (human)) of 50%, a kinase still bound, per cent of control (WEE2 (human)) of 95% and a kinase still bound, per cent of control (BMPR1B (human)) of 73%. For the same compound, the kinase still bound, per cent of control (MET (human)) was 89%, the kinase still bound, per cent of control (CSNK1D (human)) was 47% and the kinase still bound, per cent of control (PIK3CA (human)) was 24%. The kinase still bound, per cent of control (TNNI3K (human)) was 100%, the kinase still bound, per cent of control (MUSK (human)) was 93% and the kinase still bound, per cent of control (LATS1 (human)) was 100%. The kinase still bound, per cent of control (TYRO3 (human)) was 100%, the kinase still bound, per cent of control (NTRK2 (human)) was 51% and the kinase still bound, per cent of control (CDK13 (human)) was 100%. It also gave a kinase still bound, per cent of control (MAPK1 (human)) of 100%, a kinase still bound, per cent of control (MYLK4 (human)) of 88% and a kinase still bound, per cent of control (YES1 (human)) of 94%. It also gave a kinase still bound, per cent of control (ACVR1 (human)) of 29%, a kinase still bound, per cent of control (CSNK1A1 (human)) of 81% and a kinase still bound, per cent of control (ACVR1B (human)) of 100%. It also gave a kinase still bound, per cent of control (CDKL1 (human)) of 33%, a kinase still bound, per cent of control (PDPK1 (human)) of 100% and a kinase still bound, per cent of control (MAPK7 (human)) of 98%. It also gave a kinase still bound, per cent of control (MLTK (human)) of 6.9%, a kinase still bound, per cent of control (HUNK (human)) of 86% and a kinase still bound, per cent of control (HCK (human)) of 100%.

In the case of `O=C1NC(=O)/C(=C/c2ccc3nccc(-c4ccncc4)c3c2)S1`, the kinase still bound, per cent of control (CDK3 (human)) is reported as 87%, the kinase still bound, per cent of control (CDK19 (human)) is reported as 4.2% and the kinase still bound, per cent of control [1] is reported as 51%. For the same compound, the kinase still bound, per cent of control (MTOR (human)) was 5%, the kinase still bound, per cent of control (MAPK4 (human)) was 100% and the kinase still bound, per cent of control (IGF1R (human)) was 100%. For the same compound, the kinase still bound, per cent of control (PI4KB (human)) was 0.4%, the kinase still bound, per cent of control (PLK2 (human)) was 29% and the kinase still bound, per cent of control (AKT3 (human)) was 100%. For the same compound, the kinase still bound, per cent of control (RPS6KA1 KD1 (human)) was 51%, the kinase still bound, per cent of control (IRAK3 (human)) was 14% and the kinase still bound, per cent of control (AURKB (human)) was 39%. The kinase still bound, per cent of control (RPS6KA6 KD2 (human)) was 5.2%, the kinase still bound, per cent of control (CSNK2A2 (human)) was 1.2% and the kinase still bound, per cent of control (BRSK1 (human)) was 73%. The kinase still bound, per cent of control (KDR (human)) was 81%, the kinase still bound, per cent of control (WEE2 (human)) was 95% and the kinase still bound, per cent of control (BMPR1B (human)) was 3.7%. For the same compound, the kinase still bound, per cent of control (MET (human)) was 32%, the kinase still bound, per cent of control (CSNK1D (human)) was 3.6% and the kinase still bound, per cent of control (PIK3CA (human)) was 0.05%. The kinase still bound, per cent of control (TNNI3K (human)) was 79%, the kinase still bound, per cent of control (MUSK (human)) was 92% and the kinase still bound, per cent of control (LATS1 (human)) was 80%. It also gave a kinase still bound, per cent of control (TYRO3 (human)) of 100%, a kinase still bound, per cent of control (NTRK2 (human)) of 73% and a kinase still bound, per cent of control (CDK13 (human)) of 95%. It also gave a kinase still bound, per cent of control (MAPK1 (human)) of 100%, a kinase still bound, per cent of control (MYLK4 (human)) of 2.2% and a kinase still bound, per cent of control (YES1 (human)) of 84%. The kinase still bound, per cent of control (ACVR1 (human)) was 36%, the kinase still bound, per cent of control (CSNK1A1 (human)) was 24% and the kinase still bound, per cent of control (ACVR1B (human)) was 51%. For the same compound, the kinase still bound, per cent of control (CDKL1 (human)) was 61%, the kinase still bound, per cent of control (PDPK1 (human)) was 62% and the kinase still bound, per cent of control (MAPK7 (human)) was 59%. For the same compound, the kinase still bound, per cent of control (MLTK (human)) was 16%, the kinase still bound, per cent of control (HUNK (human)) was 59% and the kinase still bound, per cent of control (HCK (human)) was 75%.
